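Tested at 5 concentrations; 48 h exposure; 96-well plates; endpoints linearly interpolated, else capped at highest concentration. GI50 is the concentration that inhibits growth by half. TGI: total growth inhibition.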
Assays:
Experiment in all cases: NCI-60 cell line screen, 48 h
[1] = test system: SK-MEL-28 melanoma
[2] = test system: SF-295 CNS
[3] = test system: OVCAR-3 ovarian
[4] = test system: HCT-116 colon
[5] = test system: SF-539 CNS
[6] = test system: HOP-62 NSCLC
[7] = test system: A498 renal
[8] = test system: HOP-92 NSCLC
[9] = test system: SK-MEL-5 melanoma
[10] = test system: HS 578T breast

Row | Compound | GI50 [1] [µM] | TGI [1] [µM] | GI50 [2] [µM] | TGI [2] [µM] | GI50 [3] [µM] | TGI [3] [µM] | GI50 [4] [µM] | TGI [4] [µM] | GI50 [5] [µM] | TGI [5] [µM] | GI50 [6] [µM] | TGI [6] [µM] | GI50 [7] [µM] | TGI [7] [µM] | GI50 [8] [µM] | TGI [8] [µM] | GI50 [9] [µM] | TGI [9] [µM] | GI50 [10] [µM] | TGI [10] [µM]
1 | CC(=O)[CH-]C(=O)c1ccccc1.CC(=O)[CH-]C(=O)c1ccccc1.COc1cccc([O-])c1[O-].[Ti+4] | 31 | > 100 | 70.4 | > 100 | 40.5 | > 100 | 32.1 | > 100 | 24.4 | 65.6 | 71.4 | > 100 | 72.5 | > 100 | 57.8 | > 100 | 93.3 | > 100 |  | 
2 | Cc1cc(N2CCN(C)CC2)nc(NCc2cc(Nc3ccnc4cc(Cl)ccc34)ccc2F)n1 | 1.67 | 3.28 | 1.68 | 3.24 | 2 | 4.15 | 1.5 | 3.3 | 1.69 | 3.24 | 1.63 | 3.83 | 1.52 | 4.03 |  |  | 1.44 | 2.75 | 2.82 | 7.97
3 | N#CCCN(CCC#N)C(=O)c1cccc(C(=O)N(CCC#N)CCC#N)c1 |  |  |  | > 100 |  | > 100 |  | 99.4 |  | > 55.3 |  | > 100 |  | > 100 |  | > 100 |  | > 100 |  | 
4 | CCC1=C(C)/C(=C/c2[nH]c(C(Br)Br)c(CC)c2C)N=C1C(Br)Br |  | > 100 |  | 98.2 |  | > 100 |  | > 100 |  | > 100 |  | > 100 |  |  |  | > 100 |  | 32.1 |  | 
5 | CNC(=S)N/N=C1\CC(c2ccccc2)Oc2ccccc21 (stereo not given) |  | > 100 |  | > 100 |  | > 100 |  | > 100 |  | > 100 |  |  |  |  |  | > 100 |  | > 100 |  | 
6 | COc1ccc(C(C#N)NC23CC4CC(CC(C4)C2)C3)cc1OC (stereo not given) |  | > 100 |  | > 100 |  | > 100 |  | > 100 |  | > 100 |  | > 100 |  |  |  | > 100 |  | > 100 |  | > 100
7 | CC(N=C(N)N)C(=O)O (stereo not given) |  | > 100 |  | > 100 |  | > 100 |  | > 100 |  |  |  | > 100 |  | > 100 |  |  |  | > 100 |  | > 100
8 | [N-]=[N+]=Nc1ccc(CCN2CCN(c3cccc(C(F)(F)F)c3)CC2)cc1I |  | > 100 |  | > 100 |  | > 100 |  | > 100 |  | > 100 |  |  |  | > 100 |  |  |  | > 100 |  | 
9 | N#CNC(N)=NCCO |  | > 100 |  | > 100 |  | > 100 |  | > 100 |  | > 100 |  | > 100 |  | > 100 |  | > 100 |  | > 100 |  | 
10 | COc1cc(=O)oc(/C=C/C=O)c1C |  | 26.6 |  | 30.3 |  | 33.4 |  | 17.4 |  | 34.2 |  | 34.9 |  | > 100 |  | 53.4 |  | 38.4 |  | 
11 | [C-]#[O+].[Cl][Sn]([Cl])[Cl].[Cl][Sn]([Cl])[Cl].[Pt].c1ccc([PH+](c2ccccc2)c2ccccc2)cc1.c1ccc([PH+](c2ccccc2)c2ccccc2)cc1 | 69.5 | > 100 | 71.5 | > 100 | 62.1 | > 100 | 43.2 | > 100 | 92.3 | > 100 |  |  | 18.8 | 50.1 | 17.1 | 46.8 | 31.5 | > 100 |  | 
12 | COc1ccc(CN2C(=O)C(Cc3cc(OC)c(OC)c(C)c3OC)NC(=O)/C2=C/c2cc(OC)c(OC)c(C)c2OC)cc1 (stereo not given) |  | > 100 |  | > 100 |  | 82.2 |  | 60.7 |  | > 100 |  | > 100 |  | 97.6 |  | 67.7 |  | 34.5 |  | 
13 | O=C(Cc1nc2ccccc2c(=O)n1-c1c(Cl)cccc1Cl)c1ccncc1 |  | 43.6 |  | 36.5 |  | 77.8 |  | 39.7 |  | 34.5 |  | 47.9 |  | 72.3 |  | 69.8 |  | 29.4 |  | 
14 | CC1(C)OC(=O)[C@@](C)([C@H](O)c2ccccc2)O1 |  |  |  | > 100 |  | > 100 |  | > 100 |  | > 100 |  | > 100 |  | > 100 |  | > 100 |  | > 100 |  | 
15 | C[C@@H](C1CCC2C3C(=CC(=O)[C@@]21C)[C@H](C)[C@]1(CCC(=O)O1)C1OC31)[C@H]1C[C@]2(C)O[C@@](C)(O1)OC2(C)C (stereo not given in full) |  | > 100 |  | > 100 |  |  |  | > 100 |  | > 100 |  |  |  | > 100 |  | > 100 |  | > 100 |  | 
16 | CC(C)(C)N/N=C(\Cc1occc(=O)c1O)C(=O)Nc1ccc([N+](=O)[O-])cc1[N+](=O)[O-] |  | > 100 |  | > 100 |  |  |  | > 100 |  | > 100 |  | > 100 |  | > 100 |  | > 100 |  | > 100 |  | 
17 | Cc1onc(-c2c(F)cccc2Cl)c1-c1ncc(-c2ccc(Cl)cc2)o1 | 6.26 | > 100 | 8.66 | > 100 | 8.84 | > 100 | 2.76 | > 100 | 5.07 | > 100 | 8.45 | > 100 | 5.09 | > 100 |  |  | 2.55 | 8.33 | 14.1 | > 100
18 | CC(C)N(C(=O)C12C3C4C5C3C1(C(=O)N(C(C)C)C(C)C)C5(C#N)C42)C(C)C (stereo not given) |  | > 100 |  | > 100 |  | > 100 |  | > 100 |  | > 100 |  | > 100 |  | > 100 |  | > 100 |  | > 100 |  | 
19 | O=C(Cn1c(=O)c(-c2ccccc2)nc2ccccc21)c1ccc(Cl)cc1 | 42.5 | > 100 | 35.7 | > 100 | 46.6 | > 100 | > 100 | > 100 |  |  | 33.4 | > 100 |  |  | 27.2 | 65 | > 100 | > 100 | 43.5 | > 100
20 | Cc1c(C(=O)CC(=O)C(=O)Nc2c(C(C)C)cccc2C(C)C)[n+](=O)c2ccccc2n1[O-] |  | 48.3 |  | 29.1 |  | 5.29 |  | 9.1 |  | 17.5 |  | 59.3 |  | 49.6 |  | 35.1 |  | 24.4 |  | 
